Non-standard residues stand in square brackets, D forms with d. *: point of attachment. Phe(3-I) = N[C@@H](Cc1cccc(I)c1)C(=O)O; ACC = NC(=O)Cc1cc(=O)oc2cc(N*)ccc12; hCha = N[C@@H](CCC1CCCCC1)C(=O)O; hPhe = N[C@@H](CCc1ccccc1)C(=O)O; 3Pal = N[C@@H](Cc1cccnc1)C(=O)O; OBn = c1ccc(CO*)cc1
Experiments:
[1] = system: PAD2; test: Trypsin-coupled fluorogenic citrullination assay of ACC substrates with recombinant PAD2; format: biochemical, human; details: for citrullination of substrate by PAD2: substrate 10 μM, PAD2 37.5-300 nM (effective at 150-300 nM), 15 min preincubation, then trypsin 5 nM, ACC fluorescence ex 355/em 460 nm, pH 7.2, 5 mM CaCl2, triplicate; for selectivity for PAD2 over PAD4: comparison of citrullination by PAD2 and PAD4, 37.5-300 nM enzyme
Experimental: (§1) All kinetic studies were conducted using an fMax fluorescence plate reader (Molecular Devices) operating in the fluorescence kinetic mode with 96- or 384-well plates. The fluorescence of ACC was monitored at excitation and emission wavelengths of 355 and 460 nm, respectively. The assay buffers for PADs and trypsin consisted of 100 mM TRIS-HCl, 10 mM NaCl, 5 mM CaCl2, and 5 mM DTT (pH 7.2). All experiments, including library screening and substrate kinetics, were repeated at least three times and the average values were reported. Kinetic data were analyzed using GraphPad Prism software (version 10.2.0).
(§2) Substrate screening for PAD2 and PAD4 was performed at a final substrate concentration of 10 μM, as described in “PAD substrate specificity profiling section”. PAD2 and PAD4 were tested across a concentration range of 37.5 nM to 300 nM, whereas the trypsin concentration was 5 nM. Briefly, each substrate was preincubated with the specified concentration of PAD in a 50 μL reaction volume (or in 50 μL of buffer for PAD-untreated control) for 15 min, after which 50 μL of trypsin was added to the reaction wells. The hydrolysis of Arg-containing substrates by trypsin was monitored over time. The percentage of substrate citrullination was calculated by comparing the extent of trypsin-mediated cleavage of untreated substrates with that of substrates preincubated with PAD. Each assay was performed in triplicate, and the resulting citrullination percentages are presented graphically. The standard deviation of each data point was less than 15%.

[2] = system: THP-1 cells; test: Protein analysis of PMA-differentiated THP-1 cells (Western blot); format: cell-based, human; details: for caspase-1 processing to p10 fragment / vimentin and GSDMD protein levels / GSDMD cleavage: 1 h pretreatment before 40 nM PMA; for caspase-1 processing to p10 fragment / GSDMD cleavage: BAPTA 10 μM, calpeptin 100 μM; for caspase-1 processing to p10 fragment / vimentin and GSDMD protein levels: Cl-amidine 25 μM, Z-DEVD-FMK 10 μM, VX-765 10 μM
Experimental: Low-passage THP-1 cells were seeded into 12-well plates and treated with increasing concentrations of phorbol 12-myristate 13-acetate (PMA) ranging from 1 nM to 100 nM. The cells were incubated for 24 h to allow adherence and differentiation. Following incubation, the cells were lysed, and the lysates were subjected to SDS-PAGE (200 V, 30 min) and Western blot analysis. The expression and cleavage of vimentin, gasdermin D (GSDMD), NLRP3, and caspase-1 were analyzed using specific primary antibodies (1:500–1:1,000), followed by incubation with an antirabbit secondary antibody conjugated to Alexa Fluor 800 (1:10,000). Fluorescence signals were detected using an Azure Biosystems Sapphire RGB-NIR biomolecular imager. Ponceau S staining was used as a loading control to ensure equal protein loading in each lane. In a subsequent experiment, THP-1 cells were pretreated with specific inhibitors for 1 h prior to PMA-induced differentiation (40 nM PMA). The inhibitors used were: BAPTA (10 μM, calcium chelator), calpeptin (100 μM, calpain inhibitor), 4-bisindolylmaleimide (25 μM, PKC inhibitor), N-α-benzoyl-N5-(2-chloro-1-iminoethyl)-L-Orn amide or Cl-amidine (25 μM, pan PAD inhibitor, PADi), Z-DEVD-FMK (10 μM, caspase-3 inhibitor), and VX-765 (10 μM, caspase-1 inhibitor). After PMA treatment, the cells were lysed, and the lysates were processed for SDS-PAGE (200 V, 30 min) and Western blotting. Protein detection and visualization were performed in the same manner as in the cell-based experiments without inhibitors.

[3] = system: PMA/LPS-treated THP-1 cells; test: Western blot of GSDMD and IL-1β processing after DAMP treatment; format: cell-based, human
Experimental: THP-1 cells were seeded and stimulated with PMA and LPS, as described in “Protein analysis of PMA-differentiated THP-1 cells” section. After stimulation, vimentin, citrullinated vimentin, or their cleavage products-generated by caspase-3 or calpain-1 digestion were added to the cells, which were then incubated for an additional 48 h. Following incubation, lactate dehydrogenase (LDH) activity in the supernatant was measured using the CytoTox 96 Non-Radioactive Cytotoxicity Assay (G1718) as an indicator of membrane disruption, according to the manufacturer’s protocol. Cytotoxicity was calculated as the percentage of LDH released from the treated samples relative to the LDH release induced by the lysis buffer and normalized to the spontaneous release from the control cells. Absorbance was measured at 490 nm using a spectrophotometric microplate reader (Gemini XPS, Molecular Devices). All experiments were independently performed in triplicate. Statistical analyses were performed using GraphPad Prism software (GraphPad Software, Inc., La Jolla, CA, USA). One-way ANOVA followed by Tukey’s multiple comparisons posthoc test was used to determine statistical significance. For Western blot analysis, proteins from the cell lysates were prepared as described in “Protein analysis of PMA-differentiated THP-1 cells”. To isolate proteins from the supernatant, 1 mL of the sample was mixed with 0.5 mL of 30% trichloroacetic acid (TCA) at room temperature and incubated on ice for 30 min. The mixture was centrifuged at 12,000 × g for 20 min at 4 °C. The supernatant was discarded, and the pellet was washed with 100 μL of 10% TCA, followed by centrifugation. The pellet was then washed with 300 μL of acetone, centrifuged again, and allowed to dry completely. The remaining residues were dissolved in SDS-PAGE loading buffer under reducing conditions. Proteins of interest were detected using primary antibodies against GSDMD and interleukin-1β (IL-1β), followed by secondary antirabbit antibodies conjugated with Alexa Fluor 800. Fluorescence signals were visualized using an Azure Biosystems Sapphire RGB-NIR biomolecular imager. Ponceau S staining was used as a loading control to verify equal protein loading in the SDS-PAGE.

[4] = system: PAD4; test: Trypsin-coupled fluorogenic citrullination assay of ACC substrates with recombinant PAD4; format: biochemical, human; details: for selectivity for PAD4 over PAD2: comparison of citrullination by PAD4 and PAD2, 37.5-300 nM enzyme; for citrullination of substrate by PAD4: substrate 10 μM, PAD4 37.5-300 nM, 15 min preincubation, then trypsin 5 nM, ACC fluorescence ex 355/em 460 nm, pH 7.2, 5 mM CaCl2, triplicate
Experimental: as §1, §2

[5] = system: PAD4; test: Vimentin citrullination assay (Western blot); format: biochemical, human; details: recombinant vimentin 80 μg, 100 nM PAD4, 5-60 min
Experimental: Recombinant vimentin (80 μg) was incubated with 100 nM PAD4 for varying durations (5–60 min). Following incubation, the samples were subjected to SDS-PAGE, and the proteins were subsequently transferred onto a nitrocellulose membrane. Western blot analysis was performed using antivimentin and anticitrullinated vimentin antibodies, followed by a secondary antibody conjugated to Alexa Fluor 800 to assess the time-dependent decrease in native vimentin levels and the corresponding increase in citrullinated vimentin levels. Subsequently, both native and citrullinated vimentin were incubated with either human recombinant caspase-3 (20 nM) or calpain-1 (10 nM) for 30 min. After incubation, the samples were analyzed by SDS-PAGE followed by colloidal Coomassie dye G-250 (Thermo, 24590) staining.

Ac-[Phe(3-I)][hCha]DR-{ACC} (SMILES CC(=O)N[C@@H](Cc1cccc(I)c1)C(=O)N[C@@H](CCC1CCCCC1)C(=O)N[C@@H](CC(=O)O)C(=O)N[C@@H](CCCNC(=N)N)C(=O)Nc1ccc2c(CC(N)=O)cc(=O)oc2c1) [(4)-NH-13]
citrullination of substrate by PAD2 [1]: some degree of cross-reactivity

N=C(CCl)NCCC[C@H](NC(=O)c1ccccc1)C(N)=O [Cl-amidine, N-α-benzoyl-N5-(2-chloro-1-iminoethyl)-L-Orn amide]
caspase-1 processing to p10 fragment [2]: prevented
vimentin and GSDMD protein levels [2]: marked downregulation

citrullinated vimentin: PAD4-mediated citrullinated vimentin
pro-IL-1β processing [3]: no cleavage

Ac-D(OBn)[hCha]DR-{ACC} (SMILES CC(=O)N[C@@H](CC(=O)OCc1ccccc1)C(=O)N[C@@H](CCC1CCCCC1)C(=O)N[C@@H](CC(=O)O)C(=O)N[C@@H](CCCNC(=N)N)C(=O)Nc1ccc2c(CC(N)=O)cc(=O)oc2c1) [(4)-NH-11]
citrullination of substrate by PAD2 [1]: some degree of cross-reactivity

Ac-D(OBn)[dY]DR-{ACC} (SMILES CC(=O)N[C@@H](CC(=O)OCc1ccccc1)C(=O)N[C@H](Cc1ccc(O)cc1)C(=O)N[C@@H](CC(=O)O)C(=O)N[C@@H](CCCNC(=N)N)C(=O)Nc1ccc2c(CC(N)=O)cc(=O)oc2c1) [(4)-NH-2]
selectivity for PAD4 over PAD2 [4]: most selective
citrullination of substrate by PAD4 [4]: efficiently processed
citrullination of substrate by PAD2 [1]: poorly recognized

Ac-[dY]A[hPhe]R-{ACC} (SMILES CC(=O)N[C@H](Cc1ccc(O)cc1)C(=O)N[C@@H](C)C(=O)N[C@@H](CCc1ccccc1)C(=O)N[C@@H](CCCNC(=N)N)C(=O)Nc1ccc2c(CC(N)=O)cc(=O)oc2c1) [(2)-NH-7]
citrullination of substrate by PAD4 [4]: only minor processing
selectivity for PAD2 over PAD4 [1]: most selective
citrullination of substrate by PAD2 [1]: higher reactivity

CCO[C@@H]1OC(=O)C[C@@H]1NC(=O)[C@@H]1CCCN1C(=O)[C@@H](NC(=O)c1ccc(N)c(Cl)c1)C(C)(C)C [VX-765]
caspase-1 processing to p10 fragment [2]: prevented
vimentin and GSDMD protein levels [2]: marked downregulation

Ac-NV[hCha]R-{ACC} (SMILES CC(=O)N[C@@H](CC(N)=O)C(=O)N[C@H](C(=O)N[C@@H](CCC1CCCCC1)C(=O)N[C@@H](CCCNC(=N)N)C(=O)Nc1ccc2c(CC(N)=O)cc(=O)oc2c1)C(C)C) [(2)-NH-8]
citrullination of substrate by PAD4 [4]: only minor processing
selectivity for PAD2 over PAD4 [1]: most selective
citrullination of substrate by PAD2 [1]: higher reactivity

vimentin: Recombinant vimentin, purchased from Biotechne (NBP2-35139)
citrullination of vimentin by PAD4 [5]: efficient citrullination
pro-IL-1β processing [3]: no cleavage

Ac-[Phe(3-I)][3Pal]DR-{ACC} (SMILES CC(=O)N[C@@H](Cc1cccc(I)c1)C(=O)N[C@@H](Cc1cccnc1)C(=O)N[C@@H](CC(=O)O)C(=O)N[C@@H](CCCNC(=N)N)C(=O)Nc1ccc2c(CC(N)=O)cc(=O)oc2c1) [(4)-NH-12]
selectivity for PAD4 over PAD2 [4]: most selective
citrullination of substrate by PAD4 [4]: efficiently processed
citrullination of substrate by PAD2 [1]: poorly recognized

O=C(O)CN(CC(=O)O)c1ccccc1OCCOc1ccccc1N(CC(=O)O)CC(=O)O [BAPTA]
GSDMD cleavage [2]: cleavage of GSDMD
caspase-1 processing to p10 fragment [2]: processed into its active 10 kDa fragment

CO[C@@H]1C[C@@H](C[C@H]2CC[C@H](C)[C@H]([C@@H](C)C(=O)O)O2)O[C@]2(O[C@](C)([C@H]3CC[C@@](C)([C@@H]4O[C@@H]([C@H]5O[C@@](O)(CO)[C@H](C)C[C@@H]5C)C[C@@H]4C)O3)C[C@H]2C)[C@@H]1C [nigericin, reference compound]
GSDMD processing fragment [3]: p31 fragment
pro-IL-1β processing [3]: activation of pro-interleukin-1β

CCCC[C@@H](C=O)NC(=O)[C@H](CC(C)C)NC(=O)OCc1ccccc1 [calpeptin]
GSDMD cleavage [2]: cleavage of GSDMD
caspase-1 processing to p10 fragment [2]: processed into its active 10 kDa fragment

CCCCCCCCCCCCCC(=O)O[C@@H]1[C@@H](C)[C@@]2(O)[C@@H](C=C(CO)C[C@]3(O)C(=O)C(C)=C[C@@H]23)[C@@H]2C(C)(C)[C@]12OC(C)=O [PMA, phorbol 12-myristate 13-acetate]
GSDMD and NLRP3 protein levels ([2]; PMA 1-100 nM, 24 h): downregulating
vimentin protein level ([2]; PMA 1-100 nM, 24 h): dose-dependent upregulation

COC(=O)CC[C@H](NC(=O)[C@H](CC(=O)OC)NC(=O)OCc1ccccc1)C(=O)N[C@H](C(=O)N[C@@H](CC(=O)OC)C(=O)CF)C(C)C [Z-DEVD-fmk, Z-DEVD-FMK]
caspase-1 processing to p10 fragment [2]: prevented
vimentin and GSDMD protein levels [2]: marked downregulation
